Test results published in ChEMBL document CHEMBL5291721, “A preclinical secondary pharmacology resource illuminates target-adverse drug reaction associations of marketed drugs” (Nat Commun, 2023).

What was measured:
[1] = biological target: T1, Alpha-1A adrenergic receptor (Homo sapiens, UniProt P35348); type: functional, cell-based
T1 sequence (P35348 whole entry): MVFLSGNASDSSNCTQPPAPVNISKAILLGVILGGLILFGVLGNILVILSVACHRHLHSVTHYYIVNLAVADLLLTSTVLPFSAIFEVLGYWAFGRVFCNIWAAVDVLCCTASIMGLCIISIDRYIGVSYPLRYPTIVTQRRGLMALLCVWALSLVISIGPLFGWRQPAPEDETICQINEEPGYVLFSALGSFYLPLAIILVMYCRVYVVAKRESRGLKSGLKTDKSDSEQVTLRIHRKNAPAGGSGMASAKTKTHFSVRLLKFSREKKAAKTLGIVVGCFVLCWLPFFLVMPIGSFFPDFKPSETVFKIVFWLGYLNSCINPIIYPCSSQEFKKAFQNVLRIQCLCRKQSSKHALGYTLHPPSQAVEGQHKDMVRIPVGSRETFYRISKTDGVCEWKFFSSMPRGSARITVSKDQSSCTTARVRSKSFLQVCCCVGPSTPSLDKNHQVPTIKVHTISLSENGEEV

[2] = biological target: D(3) dopamine receptor (Homo sapiens, UniProt P35462)
Chain of D(3) dopamine receptor (P35462 whole entry): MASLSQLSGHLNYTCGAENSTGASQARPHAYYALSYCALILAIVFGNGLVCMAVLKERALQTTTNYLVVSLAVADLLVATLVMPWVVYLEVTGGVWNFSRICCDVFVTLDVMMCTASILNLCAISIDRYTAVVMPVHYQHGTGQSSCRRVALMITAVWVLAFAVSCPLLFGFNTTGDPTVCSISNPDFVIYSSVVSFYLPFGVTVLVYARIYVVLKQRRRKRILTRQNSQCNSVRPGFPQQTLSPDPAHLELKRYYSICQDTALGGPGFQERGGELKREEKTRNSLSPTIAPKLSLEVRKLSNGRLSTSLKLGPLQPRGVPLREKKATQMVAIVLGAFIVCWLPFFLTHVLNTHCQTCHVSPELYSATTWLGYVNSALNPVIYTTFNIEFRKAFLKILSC

[3] = biological target: T2, Thromboxane A2 receptor (Homo sapiens, UniProt P21731); type: functional, cell-based
T2 sequence (P21731 whole entry): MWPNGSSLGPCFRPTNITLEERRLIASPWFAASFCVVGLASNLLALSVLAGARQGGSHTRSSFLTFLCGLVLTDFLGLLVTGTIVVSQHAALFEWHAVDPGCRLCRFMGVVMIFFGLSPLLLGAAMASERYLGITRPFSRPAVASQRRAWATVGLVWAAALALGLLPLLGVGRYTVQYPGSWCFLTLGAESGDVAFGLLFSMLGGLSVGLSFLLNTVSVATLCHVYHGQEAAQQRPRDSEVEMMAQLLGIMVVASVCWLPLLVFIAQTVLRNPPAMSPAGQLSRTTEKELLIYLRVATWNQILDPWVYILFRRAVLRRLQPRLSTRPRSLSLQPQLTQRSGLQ

[4] = biological target: Sodium-dependent noradrenaline transporter (Homo sapiens, UniProt P23975)
Chain of Sodium-dependent noradrenaline transporter (P23975 whole entry): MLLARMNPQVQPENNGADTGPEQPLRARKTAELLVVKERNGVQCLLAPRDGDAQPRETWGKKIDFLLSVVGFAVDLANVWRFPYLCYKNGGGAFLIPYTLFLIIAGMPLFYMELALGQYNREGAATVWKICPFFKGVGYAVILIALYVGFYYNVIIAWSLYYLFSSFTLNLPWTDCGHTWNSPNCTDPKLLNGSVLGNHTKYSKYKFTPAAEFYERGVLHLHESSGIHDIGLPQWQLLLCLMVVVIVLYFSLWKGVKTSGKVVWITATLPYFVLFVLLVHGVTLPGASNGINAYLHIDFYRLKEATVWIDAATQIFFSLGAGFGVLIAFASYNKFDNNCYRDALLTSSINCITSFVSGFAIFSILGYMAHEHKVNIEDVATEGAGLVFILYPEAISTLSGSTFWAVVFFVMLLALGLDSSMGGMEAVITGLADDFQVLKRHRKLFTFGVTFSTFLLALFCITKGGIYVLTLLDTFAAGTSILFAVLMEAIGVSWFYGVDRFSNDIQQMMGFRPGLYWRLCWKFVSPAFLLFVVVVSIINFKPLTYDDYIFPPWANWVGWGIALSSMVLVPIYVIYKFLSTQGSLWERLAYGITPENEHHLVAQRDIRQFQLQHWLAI

[5] = biological target: 3',5'-cyclic-AMP phosphodiesterase 4A (Homo sapiens, UniProt P27815); type: functional
Chain of 3',5'-cyclic-AMP phosphodiesterase 4A (P27815 whole entry): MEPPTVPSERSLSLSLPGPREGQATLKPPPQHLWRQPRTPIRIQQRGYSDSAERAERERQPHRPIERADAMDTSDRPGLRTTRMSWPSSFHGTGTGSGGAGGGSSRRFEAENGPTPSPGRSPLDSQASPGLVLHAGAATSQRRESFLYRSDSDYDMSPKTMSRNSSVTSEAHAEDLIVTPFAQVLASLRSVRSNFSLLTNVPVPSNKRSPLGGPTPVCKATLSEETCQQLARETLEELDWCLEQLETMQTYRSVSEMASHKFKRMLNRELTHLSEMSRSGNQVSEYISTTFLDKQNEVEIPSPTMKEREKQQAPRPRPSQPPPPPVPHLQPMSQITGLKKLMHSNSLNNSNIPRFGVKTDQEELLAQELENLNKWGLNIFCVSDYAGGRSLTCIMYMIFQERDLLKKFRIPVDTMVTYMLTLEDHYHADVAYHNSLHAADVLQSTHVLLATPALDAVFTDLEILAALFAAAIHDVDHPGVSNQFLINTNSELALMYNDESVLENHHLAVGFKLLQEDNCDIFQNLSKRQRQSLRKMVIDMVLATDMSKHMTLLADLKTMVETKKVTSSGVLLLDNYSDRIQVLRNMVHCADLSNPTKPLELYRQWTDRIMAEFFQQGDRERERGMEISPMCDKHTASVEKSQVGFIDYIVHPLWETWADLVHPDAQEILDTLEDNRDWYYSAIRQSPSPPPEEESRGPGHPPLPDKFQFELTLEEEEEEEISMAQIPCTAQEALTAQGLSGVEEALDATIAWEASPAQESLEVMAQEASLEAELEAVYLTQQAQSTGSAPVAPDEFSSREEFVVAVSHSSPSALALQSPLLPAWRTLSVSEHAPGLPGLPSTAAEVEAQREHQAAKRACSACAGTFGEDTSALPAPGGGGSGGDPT

[6] = biological target: T2, Thromboxane A2 receptor; type: functional, cell-based; remark: listed apart in the source
[7] = biological target: T3, Progesterone receptor (Homo sapiens, UniProt P06401)
T3 sequence (P06401 whole entry): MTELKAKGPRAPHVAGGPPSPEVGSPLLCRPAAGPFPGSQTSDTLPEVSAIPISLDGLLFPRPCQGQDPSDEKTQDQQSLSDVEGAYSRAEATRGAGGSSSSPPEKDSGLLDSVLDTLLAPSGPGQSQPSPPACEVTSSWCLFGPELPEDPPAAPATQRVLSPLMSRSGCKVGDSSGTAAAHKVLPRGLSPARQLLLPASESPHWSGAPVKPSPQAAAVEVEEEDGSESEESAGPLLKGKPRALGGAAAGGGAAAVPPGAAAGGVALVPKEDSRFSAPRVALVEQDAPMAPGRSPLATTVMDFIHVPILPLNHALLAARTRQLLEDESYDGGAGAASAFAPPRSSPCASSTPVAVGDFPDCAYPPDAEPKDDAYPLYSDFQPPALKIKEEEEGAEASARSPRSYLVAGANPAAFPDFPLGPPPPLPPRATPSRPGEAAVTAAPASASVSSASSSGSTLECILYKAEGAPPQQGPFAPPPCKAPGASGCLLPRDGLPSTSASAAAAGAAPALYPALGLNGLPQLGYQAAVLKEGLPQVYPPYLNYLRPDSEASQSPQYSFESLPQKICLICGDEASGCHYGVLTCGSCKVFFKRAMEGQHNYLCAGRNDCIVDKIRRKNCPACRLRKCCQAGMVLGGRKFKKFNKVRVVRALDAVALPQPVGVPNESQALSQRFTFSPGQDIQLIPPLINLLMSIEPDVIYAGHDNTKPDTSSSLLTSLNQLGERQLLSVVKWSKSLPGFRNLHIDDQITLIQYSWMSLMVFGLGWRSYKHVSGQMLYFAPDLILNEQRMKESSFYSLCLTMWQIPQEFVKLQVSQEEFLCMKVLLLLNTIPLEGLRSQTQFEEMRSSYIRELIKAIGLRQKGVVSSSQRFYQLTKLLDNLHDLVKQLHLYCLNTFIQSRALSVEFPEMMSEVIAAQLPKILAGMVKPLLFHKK

[8] = biological target: T1, Alpha-1A adrenergic receptor; type: functional, cell-based; remark: listed apart in the source
[9] = biological target: Prostaglandin G/H synthase 1 (Homo sapiens, UniProt P23219); type: functional
Chain of Prostaglandin G/H synthase 1 (P23219 whole entry): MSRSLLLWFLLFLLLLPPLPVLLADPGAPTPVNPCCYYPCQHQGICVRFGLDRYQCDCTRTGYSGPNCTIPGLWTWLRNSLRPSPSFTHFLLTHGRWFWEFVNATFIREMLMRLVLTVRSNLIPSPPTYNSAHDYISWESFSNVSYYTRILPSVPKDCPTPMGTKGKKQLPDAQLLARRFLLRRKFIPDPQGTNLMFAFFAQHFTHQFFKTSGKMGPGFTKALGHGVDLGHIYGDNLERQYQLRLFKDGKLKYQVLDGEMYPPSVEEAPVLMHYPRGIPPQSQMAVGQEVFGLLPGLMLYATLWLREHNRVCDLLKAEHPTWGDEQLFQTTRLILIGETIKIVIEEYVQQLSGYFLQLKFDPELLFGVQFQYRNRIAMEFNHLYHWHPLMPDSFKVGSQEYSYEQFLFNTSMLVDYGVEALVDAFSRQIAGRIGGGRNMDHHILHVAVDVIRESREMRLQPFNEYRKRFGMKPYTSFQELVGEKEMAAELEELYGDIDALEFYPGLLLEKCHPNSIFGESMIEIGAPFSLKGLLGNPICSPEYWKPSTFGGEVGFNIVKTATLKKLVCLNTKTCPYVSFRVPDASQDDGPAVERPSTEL

[10] = biological target: Acetylcholinesterase (Homo sapiens, UniProt P22303); type: functional
Chain of Acetylcholinesterase (P22303 whole entry): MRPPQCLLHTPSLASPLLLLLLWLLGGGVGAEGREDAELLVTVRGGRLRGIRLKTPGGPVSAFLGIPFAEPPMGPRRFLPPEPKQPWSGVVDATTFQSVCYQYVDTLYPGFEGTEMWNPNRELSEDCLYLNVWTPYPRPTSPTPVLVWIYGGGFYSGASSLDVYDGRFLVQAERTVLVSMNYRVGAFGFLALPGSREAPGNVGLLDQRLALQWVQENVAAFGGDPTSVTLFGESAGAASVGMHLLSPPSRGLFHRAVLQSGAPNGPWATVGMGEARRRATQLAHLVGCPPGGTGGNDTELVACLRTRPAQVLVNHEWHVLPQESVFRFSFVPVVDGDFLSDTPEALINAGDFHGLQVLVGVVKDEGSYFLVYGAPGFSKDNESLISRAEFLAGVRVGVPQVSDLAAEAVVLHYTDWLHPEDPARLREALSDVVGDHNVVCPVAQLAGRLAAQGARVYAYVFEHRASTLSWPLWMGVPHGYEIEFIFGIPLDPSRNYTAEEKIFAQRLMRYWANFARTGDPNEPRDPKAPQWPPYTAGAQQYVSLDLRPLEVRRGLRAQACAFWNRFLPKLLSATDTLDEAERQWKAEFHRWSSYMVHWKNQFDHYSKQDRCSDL

[11] = biological target: T4, Adenosine receptor A3 (Homo sapiens, UniProt P0DMS8)
T4 sequence (P0DMS8 whole entry): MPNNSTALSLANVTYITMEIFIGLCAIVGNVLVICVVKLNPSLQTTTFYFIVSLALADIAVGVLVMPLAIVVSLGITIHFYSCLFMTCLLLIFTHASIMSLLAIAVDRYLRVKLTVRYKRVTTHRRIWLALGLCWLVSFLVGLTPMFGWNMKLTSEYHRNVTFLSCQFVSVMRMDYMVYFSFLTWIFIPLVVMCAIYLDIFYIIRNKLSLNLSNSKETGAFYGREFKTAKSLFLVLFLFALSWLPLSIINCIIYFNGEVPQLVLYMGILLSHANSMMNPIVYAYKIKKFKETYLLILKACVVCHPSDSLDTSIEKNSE

[12] = biological target: Sodium-dependent dopamine transporter (Homo sapiens, UniProt Q01959)
Chain of Sodium-dependent dopamine transporter (Q01959 whole entry): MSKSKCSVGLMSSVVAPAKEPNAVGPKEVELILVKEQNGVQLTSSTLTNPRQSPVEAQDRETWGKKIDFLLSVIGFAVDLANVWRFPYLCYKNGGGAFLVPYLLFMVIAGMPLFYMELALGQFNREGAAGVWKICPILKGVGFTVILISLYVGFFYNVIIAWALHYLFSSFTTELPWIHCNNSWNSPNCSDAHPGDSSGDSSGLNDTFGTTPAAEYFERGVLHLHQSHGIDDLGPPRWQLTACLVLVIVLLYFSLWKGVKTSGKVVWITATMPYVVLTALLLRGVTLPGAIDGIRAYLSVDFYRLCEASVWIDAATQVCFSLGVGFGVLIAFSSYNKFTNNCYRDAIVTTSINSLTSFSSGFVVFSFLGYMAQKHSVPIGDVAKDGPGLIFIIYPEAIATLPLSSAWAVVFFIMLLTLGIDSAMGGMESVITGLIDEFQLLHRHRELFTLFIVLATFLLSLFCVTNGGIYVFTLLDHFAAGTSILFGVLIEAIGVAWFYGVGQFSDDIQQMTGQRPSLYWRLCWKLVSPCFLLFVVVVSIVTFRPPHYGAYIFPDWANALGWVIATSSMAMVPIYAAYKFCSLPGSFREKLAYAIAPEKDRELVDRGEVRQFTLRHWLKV
Further: assay procedure not described here.

| SMILES | AC50 [1] | AC50 [2] | AC50 [3] | AC50 [4] | AC50 [5] | AC50 [6] | AC50 [7] | AC50 [8] | AC50 [9] | AC50 [10] | AC50 [11] | AC50 [12] |
| --- | --- | --- | --- | --- | --- | --- | --- | --- | --- | --- | --- | --- |
| C[C@@H]1C[C@H]2[C@@H]3CCC4=CC(=O)C=C[C@]4(C)[C@@]3(F)[C@@H](O)C[C@]2(C)[C@H]1C(=O)CO [DESOXIMETASONE] | > 30 µM | > 30 µM | > 30 µM | > 30 µM | > 30 µM | > 30 µM | 0.0331 µM | > 30 µM | > 30 µM | > 30 µM | > 30 µM | > 30 µM |
| COc1ccc(-c2cc(=O)c3c(O)cc(O[C@@H]4O[C@H](CO[C@@H]5O[C@@H](C)[C@H](O)[C@@H](O)[C@H]5O)[C@@H](O)[C@H](O)[C@H]4O)cc3o2)cc1O [DIOSMIN] | > 30 µM | > 30 µM | > 30 µM | > 30 µM | > 30 µM | > 30 µM | > 30 µM | > 30 µM | > 30 µM | > 30 µM | > 30 µM | > 30 µM |
| O=C(Nc1ccccc1)OCC(CN1CCCCC1)OC(=O)Nc1ccccc1 (stereo not given) [DIPERODON] | > 30 µM | 23.5 µM | > 30 µM | > 30 µM | > 30 µM | > 30 µM | > 30 µM | > 30 µM | > 30 µM | > 30 µM | > 30 µM | > 30 µM |
| CCOc1ccc(/C=C2\NCCc3cc(OCC)c(OCC)cc32)cc1OCC [DROTAVERINE] | > 30 µM | > 30 µM | > 30 µM | > 30 µM | 1.68 µM | > 30 µM | > 30 µM | > 10 µM | 9.33 µM | 26.1 µM | 26.4 µM | > 30 µM |
| CC1=NN(c2ccccc2)C(=O)C1 [EDARAVONE] | > 30 µM | 10.9 µM | > 30 µM | > 30 µM | > 30 µM | > 30 µM | > 30 µM | > 30 µM | > 30 µM | > 30 µM | > 30 µM | > 30 µM |
| CCOC(=O)C(c1c(O)c2ccccc2oc1=O)c1c(O)c2ccccc2oc1=O [ETHYL BISCOUMACETATE] | > 30 µM | > 30 µM | > 30 µM | > 30 µM | > 30 µM | > 30 µM | > 30 µM | > 30 µM | > 30 µM | > 30 µM | 17.3 µM | > 30 µM |
| Cc1nc(-c2ccc(OCC(C)C)c(C#N)c2)sc1C(=O)O [FEBUXOSTAT] | > 30 µM | > 30 µM | > 30 µM | > 30 µM | 29 µM | > 30 µM | 16.1 µM | > 30 µM | > 30 µM | > 30 µM | > 30 µM | > 30 µM |
| O=C1NCC2(CCN(CCc3ccccc3)CC2)O1 [FENSPIRIDE] | > 30 µM | > 30 µM | > 30 µM | > 30 µM | > 30 µM | > 30 µM | > 30 µM | > 30 µM | > 30 µM | > 30 µM | > 30 µM | > 30 µM |
| C[C@@H]1C[C@H]2[C@@H]3C[C@H](F)C4=CC(=O)C=C[C@]4(C)[C@@]3(F)[C@@H](O)C[C@]2(C)[C@@]1(O)C(=O)COC(=O)C(C)(C)C [FLUMETHASONE PIVALATE] | > 30 µM | > 30 µM | > 30 µM | > 30 µM | > 30 µM | > 30 µM | 5.85 µM | > 30 µM | > 30 µM | > 30 µM | > 30 µM | > 30 µM |
| CC(C)Cc1ccc(C(C)C(=O)NO)cc1 (stereo not given) [IBUPROXAM] | > 30 µM | > 30 µM | > 30 µM | > 30 µM | 24.2 µM | > 30 µM | > 30 µM | > 30 µM | > 30 µM | > 30 µM | > 30 µM | > 30 µM |
